Source: patent US20250144067A1, “PERSONALIZED STARVATION THERAPY FOR CANCER” (Faeth Therapeutics, Inc., priority 2021, published 2025)
Counter-ions that a name gives are not always drawn. Like-named read-outs stand apart in the source and are kept apart here.

Columns and labels:
[1] = test system: NCI-H292 lung cancer cells; assay: FDA drug screening, complete media vs cholesterol-free media with simvastatin (TABLE 2); format: cell-based, human
[2] = test system: NCI-H292 lung cancer cells; assay: FDA drug screening, complete media vs cholesterol-free media without statin (TABLE 1); format: cell-based, human
[3] = NCI-H292 cells, FDA drug library screen, cholesterol-free media with simvastatin 0.04 μM
[4] = NCI-H292 cells, FDA drug library screen, complete media
[5] = complete media vs cholesterol-free media + simvastatin (0.04 μM), >0 enhanced anti-cancer activity, about 0 neutral, <0 antagonist
[6] = Complete minus Cholesterol-free, greater than 0 enhanced anti-cancer activity, about 0 neutral, below 0 antagonist
[7] = NCI-H292 cells, FDA drug library screen, cholesterol-free media without statin
[8] = Complete minus Cholesterol-free, >0 enhanced anti-cancer activity, about 0 neutral, <0 antagonist
[9] = NCI-H292 cells, cholesterol-free media without statin
[10] = NCI-H292 cells, FDA library drug in complete media
[11] = NCI-H292 cells, cholesterol-free media without statin, FDA drug library screen
[12] = NCI-H292 cells, complete media, FDA drug library screen
[13] = complete vs cholesterol-free media, >0 enhanced anti-cancer activity, about 0 neutral, <0 antagonist
[14] = NCI-H292 cells, FDA library drug in cholesterol-free media with simvastatin 0.04 μM
[15] = NCI-H292 cells, cholesterol-free media with simvastatin 0.04 μM, cell growth value in FDA drug screen
[16] = NCI-H292 cells, complete media, cell growth value in FDA drug screen
[17] = complete media minus cholesterol-free media + simvastatin, >0 enhanced anti-cancer activity, about 0 neutral, <0 antagonist
[18] = complete vs cholesterol-free media, greater than 0 enhanced anti-cancer activity, about 0 neutral, below 0 antagonists
[19] = Complete minus Cholesterol-free, greater than 0 enhanced anti-cancer activity, about 0 neutral, below 0 antagonists
[20] = NCI-H292 cells in cholesterol-free media without statin
[21] = NCI-H292 cells in complete media
[22] = NCI-H292 cells, cholesterol-free media with simvastatin 0.04 μM, FDA drug library screen (TABLE 2)
[23] = NCI-H292 cells, complete media, FDA drug library screen (TABLE 2)
[24] = complete media minus cholesterol-free media + simvastatin (0.04 μM), >0 enhanced anti-cancer activity, about 0 neutral, <0 antagonist
[25] = Complete minus Cholesterol-free, […]

OC[C@@H](O)CN1CCN(c2ccccc2)CC1 [Levodropropizine]
Cholesterol-free media + simvastatin (0.04 μM) [1, 3]: 1.096
Complete Media [1, 4]: 0.9475
Difference [1, 5]: −0.15
Difference [2, 6]: −0.15
Cholesterol-free [2, 7]: 0.946
Complete [2, 4]: 0.7999

N[C@@H](Cc1ccccc1)C(=O)O [L-Phenylalanine]
Cholesterol-free media + simvastatin (0.04 μM) ([1]; NCI-H292 cells, drug in cholesterol-free media with simvastatin 0.04 μM): 0.988
Complete Media ([1]; NCI-H292 cells, drug in complete media): 0.7918
Difference [1, 5]: −0.20
Difference [2, 8]: −0.24
Cholesterol-free [2, 9]: 1.103
Complete ([2]; NCI-H292 cells, complete media): 0.8607

Bretylium (tosylate)
Complete Media [1, 10]: 0.8163
Difference [1, 5]: −0.40
Cholesterol-free [2, 11]: 0.5154
Complete [2, 12]: 0.751
Difference [2, 13]: 0.24

CC(=O)OCC(CCn1cnc2cnc(N)nc21)COC(C)=O [Famciclovir]
Cholesterol-free media + simvastatin (0.04 μM) [1, 14]: 1.597
Complete Media [1, 10]: 1.161
Difference [1, 5]: −0.44
Difference [2, 8]: −0.27
Cholesterol-free [2, 9]: 1.022
Complete ([2]; NCI-H292 cells, complete media): 0.7509

CC(C)(C)NC(=O)[C@H]1CC[C@H]2[C@@H]3CC[C@H]4NC(=O)C=C[C@]4(C)[C@H]3CC[C@]12C [Finasteride]
Cholesterol-free media + simvastatin (0.04 μM) [1, 15]: 1.571
Complete Media [1, 16]: 1.636
Difference [1, 17]: 0.06
Cholesterol-free [2, 9]: 1.209
Complete ([2]; NCI-H292 cells, complete media): 0.7878
Difference [2, 18]: −0.42

COc1cc(Nc2ncc(F)c(Nc3ccc4c(n3)N(COP(=O)(O)O)C(=O)C(C)(C)O4)n2)cc(OC)c1OC [Fostamatinib]
Cholesterol-free media + simvastatin (0.04 μM) [1, 14]: 1.406
Complete Media [1, 10]: 1.042
Difference [1, 5]: −0.36
Difference [2, 8]: −0.29
Cholesterol-free [2, 9]: 0.7013
Complete ([2]; NCI-H292 cells, complete media): 0.4125

CC(=O)OCC(=O)[C@@]1(O)CC[C@H]2[C@@H]3CCC4=CC(=O)CC[C@]4(C)[C@H]3C(=O)C[C@@]21C [Cortisone acetate]
Cholesterol-free media + simvastatin (0.04 μM) [1, 15]: 1.003
Complete Media [1, 16]: 1.101
Difference [1, 17]: 0.10
Difference [2, 19]: −1.35
Cholesterol-free [2, 20]: 2.332
Complete [2, 21]: 0.9837

CCc1c2c(nc3ccc(OC(=O)N4CCC(N5CCCCC5)CC4)cc13)-c1cc3c(c(=O)n1C2)COC(=O)[C@]3(O)CC [Irinotecan]
Cholesterol-free media + simvastatin (0.04 μM) [1, 14]: 0.729
Complete Media [1, 10]: 0.3631
Difference [1, 5]: −0.37
Difference [2, 6]: −0.08
Cholesterol-free [2, 7]: 0.2676
Complete [2, 4]: 0.1842

CC(=O)N(CC(O)CO)c1c(I)c(C(=O)NCC(O)CO)c(I)c(C(=O)NCC(O)CO)c1I (centres unmarked) [Iohexol]
Cholesterol-free media + simvastatin (0.04 μM) [1, 14]: 1.632
Complete Media [1, 10]: 0.8317
Difference [1, 5]: −0.80
Difference [2, 6]: −0.14
Cholesterol-free [2, 7]: 1.062
Complete [2, 4]: 0.9228

Cl.Cl.[O-][S+]1c2ccccc2N=C(N2CCN(CCOCCO)CC2)c2ccccc21 (centres unmarked) [Quetiapine sulfoxide (dihydrochloride)]
Cholesterol-free media + simvastatin (0.04 μM) [1, 3]: 1.184
Complete Media [1, 4]: 1.082
Difference [1, 5]: −0.10
Cholesterol-free [2, 9]: 1.151
Complete ([2]; NCI-H292 cells, complete media): 0.7759
Difference [2, 18]: −0.38

CNC(=O)c1ccc(N2C(=S)N(c3cnc(C#N)c(C(F)(F)F)c3)C(=O)C23CCC3)cc1F [Apalutamide]
Cholesterol-free media + simvastatin (0.04 μM) [1, 22]: 1.113
Complete Media [1, 23]: 1.082
Difference [1, 24]: −0.03
Cholesterol-free [2, 9]: 1.195
Complete ([2]; NCI-H292 cells, complete media): 0.8274
Difference [2, 18]: −0.37

NCCC(O)(P(=O)(O)O)P(=O)(O)O [Pamidronic acid]
Cholesterol-free media + simvastatin (0.04 μM) [1, 22]: 1.09
Complete Media [1, 23]: 1.049
Difference [1, 24]: −0.04
Difference [2, 6]: −0.18
Cholesterol-free [2, 7]: 0.8132
Complete [2, 4]: 0.6309

CS(=O)(=O)c1ccc([C@@H](O)[C@@H](CF)NC(=O)C(Cl)Cl)cc1 [Florfenicol]
Cholesterol-free media + simvastatin (0.04 μM) [1, 3]: 1.137
Complete Media [1, 4]: 0.997
Difference [1, 5]: −0.14
Difference [2, 6]: −0.13
Cholesterol-free [2, 7]: 0.8542
Complete [2, 4]: 0.7262

C#C[C@]1(O)CC[C@H]2[C@@H]3CCC4=CC(=O)CC[C@@H]4[C@H]3CC[C@@]21CC [Levonorgestrel]
Cholesterol-free media + simvastatin (0.04 μM) [1, 14]: 1.877
Complete Media [1, 10]: 1.543
Difference [1, 5]: −0.33
Difference [2, 8]: −0.21
Cholesterol-free [2, 9]: 1.107
Complete ([2]; NCI-H292 cells, complete media): 0.8992

Cl.N=C(N)NCCC[C@H](N)C(=O)O [L-Arginine (hydrochloride)]
Cholesterol-free media + simvastatin (0.04 μM) [1, 22]: 0.9293
Complete Media [1, 23]: 0.9241
Difference ([1]; complete media minus cholesterol-free media + simvastatin (0.04 μM), […]): −0.01
Difference [2, 25]: −0.16
Cholesterol-free [2, 7]: 1.414
Complete [2, 4]: 1.256

Cc1cc(=O)n(-c2ccccc2)n1C [Antipyrine]
Cholesterol-free media + simvastatin (0.04 μM) [1, 3]: 0.9785
Complete Media [1, 4]: 0.8535
Difference ([1]; complete media vs cholesterol-free media + simvastatin (0.04 μM), […]): −0.13
Difference [2, 25]: −0.24
Cholesterol-free [2, 9]: 1.066
Complete ([2]; NCI-H292 cells, complete media): 0.8256

CC(=O)N1C[C@H](O)C[C@H]1C(=O)O [Oxaceprol]
Cholesterol-free media + simvastatin (0.04 μM) [1, 22]: 0.8786
Complete Media [1, 23]: 0.8552
Difference [1, 24]: −0.02
Difference [2, 8]: −0.27
Cholesterol-free [2, 9]: 0.9566
Complete ([2]; NCI-H292 cells, complete media): 0.6838

CCOC(=O)OC(C)OC1=C(C(=O)Nc2ccccn2)N(C)S(=O)(=O)c2ccccc21 (centres unmarked) [Ampiroxicam]
Cholesterol-free media + simvastatin (0.04 μM) [1, 15]: 1.311
Complete Media [1, 16]: 1.382
Difference [1, 17]: 0.07
Difference [2, 8]: −0.03
Cholesterol-free [2, 11]: 0.9909
Complete [2, 12]: 0.9596

Nc1cccc2c1C(=O)N(C1CCC(=O)NC1=O)C2=O (centres unmarked) [Pomalidomide]
Cholesterol-free media + simvastatin (0.04 μM) [1, 22]: 1.093
Complete Media [1, 23]: 1.03
Difference [1, 24]: −0.06
Difference [2, 8]: −0.27
Cholesterol-free [2, 9]: 1.37
Complete ([2]; NCI-H292 cells, complete media): 1.095

Afatinib (dimaleate)
Cholesterol-free media + simvastatin (0.04 μM) [1, 3]: 0.4722
Complete Media [1, 4]: 0.3193
Difference [1, 5]: −0.15
Difference [2, 8]: 0.03
Cholesterol-free [2, 11]: 0.07869
Complete [2, 12]: 0.1056

Cc1nc(C(=O)NCC(=O)O)c(O)c2ccc(Oc3ccccc3)cc12 [Roxadustat]
Cholesterol-free media + simvastatin (0.04 μM) [1, 15]: 1.201
Complete Media [1, 16]: 1.327
Difference [1, 17]: 0.13
Difference [2, 6]: −0.11
Cholesterol-free [2, 7]: 1.074
Complete [2, 4]: 0.9662

COc1cccc(N2CCN(C3=Nc4c(F)cccc4[C@H](CC(=O)O)N3c3cc(C(F)(F)F)ccc3OC)CC2)c1 [Letermovir]
Cholesterol-free media + simvastatin (0.04 μM) [1, 22]: 1.527
Complete Media [1, 23]: 1.457
Difference [1, 24]: −0.07
Cholesterol-free [2, 9]: 1.5
Complete ([2]; NCI-H292 cells, complete media): 1.08
Difference [2, 18]: −0.42

CC(=O)Nc1nnc(S(N)(=O)=O)s1 [Acetazolamide]
Cholesterol-free media + simvastatin (0.04 μM) [1, 22]: 0.9594
Complete Media [1, 23]: 0.9398
Difference [1, 24]: −0.02
Cholesterol-free [2, 11]: 0.821
Complete [2, 12]: 0.9414
Difference [2, 13]: 0.12

COC(=O)[C@@H]1[C@H]2C[C@H]3c4[nH]c5ccccc5c4CCN3C[C@@H]2CC[C@@H]1O [Yohimbine (Hydrochloride)]
Cholesterol-free media + simvastatin (0.04 μM) [1, 15]: 1.051
Complete Media [1, 16]: 1.067
Difference [1, 17]: 0.02
Difference [2, 19]: −0.74
Cholesterol-free [2, 20]: 1.558
Complete [2, 21]: 0.818

CCC(=O)O[C@]1(C(C)=O)CC[C@H]2[C@@H]3CCC4=CC(=O)C=C[C@]4(C)[C@H]3[C@@H](O)C[C@@]21C [Deprodone propionate]
Cholesterol-free media + simvastatin (0.04 μM) [1, 15]: 0.6417
Complete Media [1, 16]: 0.6907
Difference [1, 17]: 0.05
Cholesterol-free [2, 11]: 0.6965
Complete [2, 12]: 0.786
Difference [2, 13]: 0.09

Oxeladin (citrate)
Cholesterol-free media + simvastatin (0.04 μM) [1, 3]: 0.7029
Complete Media [1, 4]: 1.466
Difference ([1]; complete media minus cholesterol-free media + simvastatin, […]): 0.76
Difference [2, 25]: −0.55
Cholesterol-free [2, 20]: 1.475
Complete [2, 21]: 0.921

Salbutamol (hemisulfate)
Cholesterol-free media + simvastatin (0.04 μM) [1, 14]: 2.036
Complete Media [1, 10]: 1.453
Difference [1, 5]: −0.58
Difference [2, 6]: −0.13
Cholesterol-free [2, 7]: 1.595
Complete [2, 4]: 1.464

CCS(=O)(=O)N1CC(CC#N)(n2cc(-c3ncnc4[nH]ccc34)cn2)C1 [Baricitinib]
Cholesterol-free media + simvastatin (0.04 μM) [1, 14]: 1.286
Complete Media [1, 10]: 0.9674
Difference [1, 5]: −0.32
Difference [2, 8]: −0.22
Cholesterol-free [2, 9]: 0.7863
Complete ([2]; NCI-H292 cells, complete media): 0.5701

Tenofovir alafenamide hemifumarate
Cholesterol-free media + simvastatin (0.04 μM) [1]: 0.5107
Complete Media [1]: 0.4195
Difference [1]: −0.09
Cholesterol-free [2]: 0.4256
Complete [2]: 0.5492
Difference [2]: 0.12
